Measured values: patent US11040028B2, “Penicinotam derivative, preparation method and use thereof” (OCEAN UNIVERSITY OF CHINA, priority 2017, dated 2021)

What was measured:
Type in all cases: cell-based
BHK-21 cells = test: Anti-fibrosis activity test: inhibition of BHK-21 cell proliferation (CCK-8); conditions: Mesocricetus auratus, BHK-21, 48 h, CCK-8, 48 hours after administration
Procedure, shortened: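 Proliferation inhibition was read as CCK-8 absorbance at 450 nm (2-hour development) relative to untreated blank, with IC50 fitted from the curve. Before that, adhered cells (2×10^4 cells/mL, 24 hours) had 48 hours' treatment at several concentrations, in triplicate, at 37° C/5% CO2; pirfenidone was the reference.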

[1] = tested on: human fibrosarcoma cells HT-1080; test: Anti-fibrosis activity test: inhibition of proliferation of human fibrosarcoma cells HT-1080 (CCK-8); conditions: Homo sapiens, HT-1080, 48 h, human fibrosarcoma cells HT-1080, CCK-8, 48 hours
Procedure, shortened: (§1)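 IC50 values derive from CCK-8 absorbance (450 nm, 2 h reagent incubation) measured after a 48 h exposure to test compounds. Before dosing, cells plated at 2×10^4 cells/mL had attached for 24 h under 5% CO2 at 37° C; triplicate wells per concentration.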

[2] = tested on: mouse macrophages (RAW264.7); test: Lipopolysaccharide-induced NO secretion in macrophages (Griess); conditions: Mus musculus, RAW264.7, 24 h, RAW264.7, LPS 1 μg/ml, a/b isomers given as first/second symbol, read-out: IC50 (μM), inhibition of lipopolysaccharide-induced NO secretion in macrophages
Procedure, shortened: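 Percent inhibition of NO release was measured by Griess absorbance at 548 nm in supernatants. Cells were mouse RAW264.7 macrophages in 10% FBS DMEM, treated with graded compound concentrations and activated by LPS (1 μg/ml) for 24 h.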

[3] = tested on: human hepatic stellate cells LX-2; test: Anti-fibrosis activity test: inhibition of proliferation of human hepatic stellate cells LX-2 (CCK-8); conditions: Homo sapiens, 48 h, human hepatic stellate cells LX-2, CCK-8, 48 hours
Procedure, shortened: as §1

[4] = tested on: human dermal fibroblasts CCC-ESF-1; test: Anti-fibrosis activity test: inhibition of proliferation of human dermal fibroblasts CCC-ESF-1 (CCK-8); conditions: Fibroblast; human dermal fibroblasts CCC-ESF-1, CCK-8, 48 hours
Procedure, shortened: as §1

[5] = tested on: cardiac fibroblast RAT-iCell-C002; test: Anti-fibrosis activity test: inhibition of proliferation of cardiac fibroblast RAT-iCell-C002 (CCK-8); conditions: Cardiac fibroblast, 48 h, cardiac fibroblast RAT-iCell-C002, CCK-8, 48 hours
Procedure, shortened: as §1

[6] = tested on: human lung fibroblasts HFL1; test: Anti-fibrosis activity test: inhibition of proliferation of human lung fibroblasts HFL1 (CCK-8); conditions: Homo sapiens, HFL1, 48 h, human lung fibroblasts HFL1, CCK-8, 48 hours
Procedure, shortened: as §1

[7] = tested on: human embryonic lung fibroblast IMR-90; test: Anti-fibrosis activity test: inhibition of proliferation of human embryonic lung fibroblast IMR-90 (CCK-8); conditions: human embryonic lung fibroblast IMR-90, CCK-8, 48 hours
Procedure, shortened: as §1

NF-κB = test: Immunological activity test: inhibition of NF-κB activity; conditions: initial concentration of 30 μM; a/b isomers given as first/second symbol; read-out: IC50 (μM), inhibitory activity against NF-κB
Procedure, shortened: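 Initial screen at 30 μM; parthenolide positive control. IC50s derived from follow-up analysis.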

Row | SMILES | IC50 (BHK-21 cells) | IC50 [1] | IC50 [2] | IC50 [3] | IC50 [4] | IC50 [5] | IC50 [6] | IC50 [7] | IC50 (NF-κB)
1 | N#Cc1cccc2c1c(=O)c1c(n2Cc2ccc(F)cc2)-c2cccn2C1=O [Compound 462a, 4-(4-Fluorobenzyl)-9,10-dioxo-4,10-dihydro-9H-pyrrolizino[1,2-b]quinoline-8-carbonitrile] | < 0.05 mM | 0.05 to 5 mM | 1 to 10 µM | 0.05 to 5 mM | 0.05 to 5 mM | 0.05 to 5 mM | 0.05 to 5 mM | 0.05 to 5 mM | 0.1 to 1 µM
2 | N#Cc1cccc2nc3c(c(OCc4ccc(F)cc4)c12)C(=O)n1cccc1-3 [Compound 462b, 9-((4-fluorobenzyl)oxy)-10-oxo-10H-pyrrolizino[1,2-b]quinoline-8-carbonitrile] | 0.05 to 5 mM | 0.05 to 5 mM | 1 to 10 µM | 0.05 to 5 mM | 0.05 to 5 mM | 0.05 to 5 mM | 0.05 to 5 mM | 0.05 to 5 mM | 0.1 to 1 µM
3 | O=C1c2c([nH]c3cccc(Cl)c3c2=O)-c2cccn21 [Compound 464a, 8-Chloro-9H-pyrrolizino[1,2-b]quinoline-9,10(4H)-dione] | < 0.05 mM | 0.05 to 5 mM | 1 to 10 µM | 0.05 to 5 mM | 0.05 to 5 mM | 0.05 to 5 mM | < 0.05 mM | 0.05 to 5 mM | 1 to 10 µM
4 | O=C1c2c(nc3cccc(Cl)c3c2O)-c2cccn21 [Compound 464b, 8-chloro-9-hydroxy-10H-pyrrolizino[1,2-b]quinolin-10-one] | 0.05 to 5 mM | 0.05 to 5 mM | 1 to 10 µM | 0.05 to 5 mM | 0.05 to 5 mM | 0.05 to 5 mM | < 0.05 mM | 0.05 to 5 mM | 1 to 10 µM
5 | O=C1c2c(n(Cc3ccc(F)cc3)c3cccc(F)c3c2=O)-c2cccn21 [Compound 468a, 8-Fluoro-4-(4-fluorobenzyl)-9H-pyrrolizino[1,2-b]quinoline-9,10(4H)-dione] | < 0.05 mM | 0.05 to 5 mM | 1 to 10 µM | 0.05 to 5 mM | 0.05 to 5 mM | 0.05 to 5 mM | 0.05 to 5 mM | 0.05 to 5 mM | 0.1 to 1 µM
6 | O=C1c2c(nc3cccc(F)c3c2OCc2ccc(F)cc2)-c2cccn21 [Compound 468b, 8-fluoro-9-((4-fluorobenzyl)oxy)-10H-pyrrolizino[1,2-b]quinolin-10-one] | 0.05 to 5 mM | 0.05 to 5 mM | 1 to 10 µM | 0.05 to 5 mM | 0.05 to 5 mM | 0.05 to 5 mM | 0.05 to 5 mM | 0.05 to 5 mM | 1 to 10 µM
7 | COc1cccc2[nH]c3c(c(=O)c12)C(=O)n1cccc1-3 [Compound 473a, 8-Methoxy-9H-pyrrolizino[1,2-b]quinoline-9,10(4H)-dione] | 0.05 to 5 mM | 0.05 to 5 mM | 1 to 10 µM | 0.05 to 5 mM | 0.05 to 5 mM | < 0.05 mM | 0.05 to 5 mM | 0.05 to 5 mM | 1 to 10 µM
8 | COc1cccc2nc3c(c(O)c12)C(=O)n1cccc1-3 [Compound 473b, 9-hydroxy-8-methoxy-10H-pyrrolizino[1,2-b]quinolin-10-one] | 0.05 to 5 mM | 0.05 to 5 mM | 1 to 10 µM | 0.05 to 5 mM | 0.05 to 5 mM | 0.05 to 5 mM | 0.05 to 5 mM | 0.05 to 5 mM | 1 to 10 µM
9 | N#Cc1cccc2[nH]c3c(c(=O)c12)C(=O)n1cccc1-3 [Compound 476a, 9,10-Dioxo-4,10-dihydro-9H-pyrrolizino[1,2-b]quinoline-8-carbonitrile] | < 0.05 mM | 0.05 to 5 mM | 1 to 10 µM | 0.05 to 5 mM | 0.05 to 5 mM | 0.05 to 5 mM | 0.05 to 5 mM | 0.05 to 5 mM | 10 to 50 µM
10 | N#Cc1cccc2nc3c(c(O)c12)C(=O)n1cccc1-3 [Compound 476b, 9-hydroxy-10-oxo-10H-pyrrolizino[1,2-b]quinoline-8-carbonitrile] | 0.05 to 5 mM | 0.05 to 5 mM | 1 to 10 µM | 0.05 to 5 mM | 0.05 to 5 mM | 0.05 to 5 mM | 0.05 to 5 mM | 0.05 to 5 mM | 10 to 50 µM
